Columns and labels:
[1] = tested on: ABIL (ammonia-binding liquid inoculum), nitrifying microbial enrichment containing both AOA and AOB; assay: Nitrification inhibition assay on ABIL (ammonium consumption); type: cell-based; conditions: for activity at 10 µM: 10 µM compound, structural variants outside formula (I), read-out: Relative nitrification (%) by ABIL treated with 10 µM compound
[2] = tested on: Nitrososphaera viennensis; assay: Nitrification inhibition assay on Nitrososphaera viennensis (nitrite, Griess); type: cell-based, Nitrososphaera viennensis EN76T; conditions: for activity at 2.5 µM: Nitrososphaera viennensis, 2.5 µM compound, structural variants outside formula (I), read-out: Relative nitrification (%) by Nitrososphaera viennensis treated with 2.5 µM compound
Experimental: Nitrite (NO2—) was measured using the Griess reagent (Product number: G4410, Griess reagent (modified), Sigma-Aldrich). Equal volumes of the sample or a diluted sample and the Griess reagent were mixed a transparent flat bottom multi-well plate and incubated in the dark at room temperature for 10 minutes. Absorbance values at 540 nm were measured spectrophotometrically (EnVision, Perkin Elmer®) and used to calculate the [NO2—] by use of a standard curve.
A liquid culture sample of Nitrososphaera viennensis EN76T was kindly supplied by prof. dr. Christa Schleper (University of Vienna). Cells were grown in fresh water medium (FWM) as described earlier by Tourna et al. (2011). All necessary materials were rinsed with 1 % HCl and washed at least 3 times with MilliQ water. FWM (pH 7.5 (KOH)) contained 17 mM NaCl, 3 mM MgCl2 × 2 H2O, 680 µM CaCl2 × 2 H2O, 1.47 mM KH2PO4 and 6.71 mM KCI. After autoclaving, successively 1 mL non-chelated trace element mixture (101 mM HCl, 488 µM H3BO3, 508 µM MnCl2 × 4 H2O, 803 µM CoCl2 × 6 H2O, 101 µM NiCl2 × 6 H2O, 12 µM CuCl2 × 2 H2O, 503 µM ZnSO4 × 7 H2O and 150 µM Na2MoO4 × 2 H2O), 1 mL Fe-NaEDTA (7.5 mM), 1 mL vitamin solution (20 mg/L biotin, 20 mg/L folic acid, 100 mg/L pyridoxine-HCl, 50 mg/L thiamine-HCl, 50 mg/L riboflavin, 50 mg/L nicotinic acid, 50 mg/L DL-pantothenic acid, 50 mg/L P-aminobenzoic acid, 2 g/L choline chloride and 10 mg/L vitamin B12), 2 mL NaHCO3 (1 M), 2 mL kanamycin (100 mg/mL), 2 mL carbenicillin (100 mg/mL), 3 mL NH4Cl (1 M), 10 mL HEPES buffer (1 M, pH 7.6) and 1 mL Na-pyruvate (0.1 M) were added aseptically. All stock-solutions were filter-sterilized, except the autoclaved non-chelated trace element mixture. Cultures were incubated aerobically at 42° C. without shaking in sterile 250-mL Erlenmeyer flasks or 30-mL cultivation tubes (Product number: 216-1290, Quickstart universal containers STERILIN®, VWR) filled with either 100 or 20 mL FWM and sealed with tape (Micropore™ Surgical Tape 1530-1, 3M™). Late-log phase cultures ([NO2-] ≥ 1 mM) were subcultivated by dilution (1:400) in fresh FWM.
7-day old 100 mL cultures grown in 250-mL Erlenmeyer flasks with a [NO2-] ≥ 1 mM were 5 times overconcentrated in fresh FWM by centrifugation (4000 rpm, 15 min, 5° C.) in 50 mL centrifuge tubes (Cat. No. 430829, CentriStar™ Conical Centrifuge Tubes, Corning®). Per batch, all the cultures were pooled in one sterile Schott bottle. Subsequently, 200 µl/well was dispensed at low pipetting speed in transparent flat bottom 96-well plates (Cat. No. 353072, Falcon® 96 Well Clear Microplate, Corning®) using 150 µl wide-bore tips (two steps of 100 µl) on a Tecan robot (Freedom EVO®, Tecan). 0.5 µl of 99.99 % DMSO (negative control - final concentration 0.25%) and 0.5 µl of 0.04 M PTIO (2-phenyl-4,4,5,5-tetramethylimidazoline-1-oxyl 3-oxide, positive control - final concentration 100 µM) were added manually to the first and last column respectively. Finally, 0.5 µl of candidate nitrification inhibitors (1 mM stock solutions in 99.99% DMSO - final concentration 2.5 µM) were added to the central wells using a pin tool on a Tecan robot (Freedom EVO®, Tecan). In between additions, the pins were washed in sequence with 99.5% DMSO, MilliQ water and 100% ethanol and air-dried. All plates were sealed with tape (Micropore™ Surgical Tape 1530-1, 3M™), stacked per 4 on top of a 96-well plate filled with 100 µl MilliQ per well and covered with aluminum foil. Position effects of the stacks within the incubator were considered. Plates were incubated at 42° C. without shaking. 24 h later, NO2— was measured spectrophotometrically at 540 nm (EnVision, Perkin Elmer®). […]

SMILES	activity at 10 µM [1]	activity at 2.5 µM [2]	inhibition in the ABIL assay ([1]; PTIO at 33 µM)	inhibition in the N. viennensis assay ([2]; PTIO at 25 µM)
Cc1nc2c(c(C)nn2C)c(C)c1CCC(=O)NCC1CCCO1 (centres unmarked) [Example 80]	100%	100%		
COc1ccc(S(=O)(=O)Nc2cccc3cn[nH]c23)c(NS(=O)(=O)C(F)F)c1 [Example 107]	96%	100%		
O=S(=O)(Nc1ccc2cn[nH]c2c1)c1ccc(S(=O)(=O)N2CCCC2)cc1 [Example 118]	99%	100%		
CC(C)n1ncc2cc(CN(C)C3CCSC3)cnc21 (centres unmarked) [Example 38]	97%	99%		
O=C(O)CC1(CC(=O)Nc2ccc3cn[nH]c3c2)CCCCC1 [Example 129]	100%	100%		
N#Cc1nn(CN2CCSCC2)c2ccc(Cl)cc12 [Example 96]	85%	96%		
COc1ccccc1CN(C)C(=O)c1cc2cnn(C(C)C)c2nc1C [Example 93]	100%	100%		
Cc1nc2c(c(C)nn2C)c(C)c1CCC(=O)N1CCOCC1C (centres unmarked) [Example 75]	100%	100%		
O=C(NCC1CCCO1)c1n[nH]c2ccc(Br)cc12 (centres unmarked) [Example 142]	100%	100%		
CC(C)n1ncc2cc(NC(=O)CN(C)S(=O)(=O)c3cccs3)cnc21 [Example 88]	100%	94%		
Cc1nc2c(cnn2C(C)C)cc1C(=O)N1CCCN(C)c2nc3ccccc3nc21 [Example 91]	100%	100%		
COC(=O)C1(CNCc2cccc3cn[nH]c23)CCOCC1 [Example 152]	100%	98%		
CC1(C)N([O])C(c2ccccc2)=[N+]([O-])C1(C)C [PTIO, 2-phenyl-4,4,5,5-tetramethylimidazoline-1-oxyl 3-oxide]			does not show inhibition anymore	does not show inhibition anymore
CC(NC(=O)c1cnc2c(cnn2C(C)C)c1)C1CCCO1 (centres unmarked) [Example 52]	100%	100%		
CCC(CC)CN(CC)C(=O)c1cnc2c(c1)c(C)nn2C [Example 54]	100%	96%		
Cc1cccc(C)c1OCC(=O)Nc1cnc2c(cnn2C(C)C)c1 [Example 71]	100%	94%		
O=C(Nc1cccc2cn[nH]c12)c1csc(-c2ccccc2)n1 [Example 131]	100%	100%		
O=S(=O)(Nc1cccc2[nH]ncc12)N1CCCCC1 [Example 113]	98%	100%		
Cc1nn(C)c2ncc(NC(=O)CCC3CCCO3)cc12 (centres unmarked) [Example 76]	100%	100%		
Cc1nnc(NC(=O)c2cnc3c(cnn3C(C)C)c2)s1 [Example 55]	100%	100%		
Cc1n[nH]c2nc(C(F)(F)F)cc(C(F)(F)F)c12 [Example 20]	90%	100%		
O=C(c1n[nH]c2ccccc12)N1CCc2ccc(F)cc21 [Example 141]	100%	93%		
Cc1sc2nc(CN3CCCC3)nc(Nc3ccc4cn[nH]c4c3)c2c1C [Example 95]	97%	96%		
COc1ccc(OCCC(=O)Nc2n[nH]c3ccccc23)cc1 [Example 121]	100%	100%		
FC(F)(F)c1c[nH]c(C2CCN(Cc3cccc4cn[nH]c34)CC2)n1 [Example 158]	100%	100%		

SMILES	activity at 10 µM [1]	activity at 2.5 µM [2]	inhibition in the ABIL assay ([1]; PTIO at 33 µM)	inhibition in the N. viennensis assay ([2]; PTIO at 25 µM)
Cc1cc(-c2nc(-c3ccc4c(c3)OCO4)no2)c2c(C)nn(C)c2n1 [Example 66]	100%	99%		
CC(C)n1ncc2cc(CNc3ccc4[nH]ncc4c3)ccc21 [Example 30]	92%	100%		
Cc1nc2c(c(C)nn2C)c(C)c1CCC(=O)NC(C)C1CCCO1 (centres unmarked) [Example 57]	100%	97%		
c1csc(Cn2ncc3ccc(-c4ccc5c(c4)OCO5)nc32)c1 [Example 25]	91%	100%		
O=C(O)CC1CSCCN1C(=O)c1cccc2cn[nH]c12 (centres unmarked) [Example 114]	98%	100%		
CC(C)CC(CNC(=O)c1n[nH]c2ccccc12)N1CCOCC1 (centres unmarked) [Example 133]	100%	100%		
CC(C)n1ncc2cc(NC(=O)CCC(=O)c3ccccc3)cnc21 [Example 68]	100%	100%		
CC(C)n1ncc2cc(C(=O)O)cnc21 [Example 61]	100%	100%		
Cc1nc2c(c(C)nn2C)c(C)c1CCC(=O)N1CCOCC1 [Example 60]	100%	100%		
Cc1nc2c(cnn2C(C)C)cc1C(=O)NC(C)c1ccccc1Br (centres unmarked) [Example 62]	100%	100%		
CNC(=O)N(C)C(=O)c1cnc2c(cnn2C(C)C)c1 [Example 27]	92%	100%		
Cc1nc2c(cnn2C(C)C)cc1C(=O)NC(C)C1CC1 (centres unmarked) [Example 31]	93%	99%		
CCC(CC)c1nnc(NC(=O)c2n[nH]c3ccccc23)s1 [Example 103]	91%	100%		
CC(Oc1ccc(Br)cc1)C(=O)Nc1cnc2c(cnn2C(C)C)c1 (centres unmarked) [Example 22]	90%	100%		
Cc1nc2c(c(C)nn2C)c(C)c1CCC(=O)N1CC(C)OC(C)C1 (centres unmarked) [Example 46]	99%	90%		
CCC1CN(C(=O)CCc2c(C)nc3c(c(C)nn3C)c2C)CCO1 (centres unmarked) [Example 58]	100%	98%		
COCCn1ncc2ccc(NS(=O)(=O)c3ccc4c(c3)CCC4)cc21 [Example 144]	100%	100%		
CC(C)n1ncc2cc(NC(=O)Cc3ccc(F)cc3)cnc21 [Example 56]	100%	100%		
Cc1nn(C)c2ncc(CNCc3ccc(N4CCCC4)nc3)cc12 [Example 59]	100%	92%		
CC(C)n1ncc2cc(NC(=O)CCC3CCCO3)cnc21 (centres unmarked) [Example 35]	96%	98%		
O=S(=O)(Nc1cccc2cn[nH]c12)N1CCCCC1 [Example 149]	100%	100%		
CC(C)n1ncc2cc(NC(=O)C3=CN4CCS(=O)(=O)N=C4C=C3)cnc21 [Example 53]	100%	95%		
CCc1nnc(NC(=O)c2cnc3c(cnn3C(C)C)c2)s1 [Example 24]	91%	100%		
Cc1nn(C)c2ncc(CNCCCN3CCc4ccccc43)cc12 [Example 37]	97%	100%		
